Values quoted from earlier work, collected in patent publication US8791127B2, “Mucosal bioadhesive slow release carrier for delivering active principles” (BioAlliance Pharma, priority 2006, dated 2014).
In brackets after ≈: the same amount, converted by molar mass.

Tested on: HSV-1 virus
Conditions: towards HSV-1 virus

Nc1nc2c(ncn2COCCO)c(=O)[nH]1 [acyclovir]
minimal inhibitory concentration (MIC): 0.0225 µg/mL (≈ 0.0999 µM)
